Structures are written as SMILES. Values after ≈ are worked out from the molar mass of the structure shown. Read-outs that look alike come from different tables or passages of the source. A value given as a limit tells only on which side of the number the result lay.

Series [1] has as its system Pyricularia oryzae. The class given is in vivo. Particulars: curative.
Series [2] has as its system Pyricularia oryzae. The series is described as follows: microbe, parasite or virus in culture. The format is cell-based. The note with it: for Diameter of mycelium (symbol) / Diameter of mycelium: 27° C., 2 weeks; for Diameter of mycelium: untreated 63.5 m/m; for MIC: Pyricularia oryzae, 336 h, read-out: MIC (minimum inhibitory concentration on mycelial growth).
The subject of series [3] is Pyricularia oryzae. The class given is in vivo. Particulars: preventive.
Series [4] deals with rice plants (var.: Kinki No. 33). The note with it: preventive test.
The mark [5] stands for this setting: concentration of active ingredient 200 ppm.
[6] abbreviates: concentration of active ingredient 100 ppm.
Where [7] appears, read: concentration of active ingredient 20 ppm.
Setting [8] is: concentration of active ingredient 500 ppm.

As to `Cc1ccccc1C=C1CC(C)OC1=O` (stereo not drawn) [Compound 5], the Disease control in the series with Pyricularia oryzae [1] (setting [5]) is reported as 100%; with Pyricularia oryzae [3] (setting [6]) it was 99%. For the same compound, the Disease severity with Pyricularia oryzae [1] (setting [5]) was determined as 0%; in the series on Pyricularia oryzae [3] (setting [6]) it was 1.3%. Further, in the series on Pyricularia oryzae [2] (2 ppm), the “Diameter of mycelium (symbol)” value is “±”. The Diameter of mycelium in the series on Pyricularia oryzae [2] (10 ppm), with Pyricularia oryzae [2] (50 ppm) and with Pyricularia oryzae [2] (250 ppm) was 0 m/m each time. The MIC in the series with Pyricularia oryzae [2] is ~2 µg/mL (≈ 9.89 µM). For the same compound, the Phytotoxicity entry in series [4] (100 ppm) was “no”.
On to `O=C1OCCC1=Cc1c(Cl)cccc1Cl` [Compound 2, α-(2,6-dichlorobenzylidene)-γ-butyrolactone], for which the Diameter of mycelium with Pyricularia oryzae [2] (2 ppm), in the series with Pyricularia oryzae [2] (10 ppm), in the series on Pyricularia oryzae [2] (50 ppm) and in the series with Pyricularia oryzae [2] (250 ppm) was 0 m/m throughout. Further, the MIC in the series with Pyricularia oryzae [2] was < 2 µg/mL. In the series on Pyricularia oryzae [3] (setting [6]), this compound gave a Disease control of 100%. This compound displayed a Disease severity in the series on Pyricularia oryzae [3] (setting [6]) of 0%. The Phytotoxicity entry in series [4] (100 ppm) was “no”.
In the case of `Cc1cccc(C)c1C=C1CCOC1=O` [Compound 4], the Diameter of mycelium with Pyricularia oryzae [2] (2 ppm), in the series on Pyricularia oryzae [2] (10 ppm), in the series with Pyricularia oryzae [2] (50 ppm) and in the series with Pyricularia oryzae [2] (250 ppm) was 0 m/m in each case. Also, the MIC in the series on Pyricularia oryzae [2] was < 2 µg/mL. Moreover, the Disease control with Pyricularia oryzae [3] (setting [6]) was determined as 99%. In the series on Pyricularia oryzae [3] (setting [6]), this compound showed a Disease severity of 1.3%. Also, the Phytotoxicity result in series [4] (100 ppm) is recorded as “no”.
As for `CC1CC(=Cc2ccccc2C(C)C)C(=O)O1` (stereo not drawn) [Compound 13], the Disease control in the series with Pyricularia oryzae [1] (setting [5]) was determined as 99%; with Pyricularia oryzae [3] (setting [6]), 100%. Moreover, the Disease severity in the series on Pyricularia oryzae [1] (setting [5]) was 1.3%; in the series on Pyricularia oryzae [3] (setting [6]), 0%. For the same compound, the “Diameter of mycelium (symbol)” value in the series with Pyricularia oryzae [2] (2 ppm) is on record as “±”. Also, the Diameter of mycelium in the series with Pyricularia oryzae [2] (10 ppm), with Pyricularia oryzae [2] (50 ppm) and with Pyricularia oryzae [2] (250 ppm) was 0 m/m in each case. For the same compound, in the series on Pyricularia oryzae [2], the MIC was ~2 µg/mL (≈ 8.68 µM). Further, the Phytotoxicity entry in series [4] (100 ppm) was “no”.
For the compound `C[C@H]1O[C@H](OC2[C@@H](O)[C@@H](O)C(O)[C@H](O)[C@H]2O)[C@@H](N)C[C@@H]1N=C(N)C(=O)O.Cl` (stereo partly drawn) [Commercial fungicide B, Kasugamycin hydrochloride, reference compound], in the series with Pyricularia oryzae [1] (setting [7]), the Disease control came to 82% and the Disease severity is 17.5%.
Regarding `CC(C)(C)C1CC(=Cc2ccccc2Cl)C(=O)O1` (stereo not drawn) [Compound 10], the “Diameter of mycelium (symbol)” value in the series on Pyricularia oryzae [2] (2 ppm) was “±”. Besides, the Diameter of mycelium in the series on Pyricularia oryzae [2] (10 ppm), in the series on Pyricularia oryzae [2] (50 ppm) and in the series on Pyricularia oryzae [2] (250 ppm) was 0 m/m throughout. The MIC with Pyricularia oryzae [2] is ~2 µg/mL (≈ 7.55 µM). This compound also yielded a Disease control with Pyricularia oryzae [3] (setting [6]) of 99%. In the series on Pyricularia oryzae [3] (setting [6]), this compound returned a Disease severity of 1.3%. In addition, in series [4] (100 ppm), the Phytotoxicity result is listed as “no”.
In the series on Pyricularia oryzae [3] (setting [8]), `C=C1CCOC1=O` [Control (i), reference compound] returned a Disease control of 0% and a Disease severity of 100%. Besides, in series [4] (500 ppm), the Phytotoxicity result is given as “no”.
Consider `CCC1CC(=Cc2ccccc2Cl)C(=O)O1` (stereo not drawn) [Compound 9, α-(o-chlorobenzylidene)-γ-ethyl-γ-butyrolactone], for which the Disease control with Pyricularia oryzae [1] (setting [5]) and in the series on Pyricularia oryzae [3] (setting [6]) was 99% throughout. Besides, the Disease severity in the series on Pyricularia oryzae [1] (setting [5]) and in the series on Pyricularia oryzae [3] (setting [6]) was 1.3% throughout. In addition, in the series on Pyricularia oryzae [2] (2 ppm), the “Diameter of mycelium (symbol)” value is “±”. For the same compound, the Diameter of mycelium with Pyricularia oryzae [2] (10 ppm), with Pyricularia oryzae [2] (50 ppm) and in the series with Pyricularia oryzae [2] (250 ppm) was 0 m/m throughout. Also, the MIC with Pyricularia oryzae [2] is ~2 µg/mL (≈ 8.45 µM). For the same compound, the Phytotoxicity entry in series [4] (100 ppm) is reported as “no”.
On to `CC1CC(=Cc2c(Cl)cccc2Cl)C(=O)O1` (stereo not drawn) [Compound 8], for which the Diameter of mycelium with Pyricularia oryzae [2] (2 ppm), with Pyricularia oryzae [2] (10 ppm), in the series with Pyricularia oryzae [2] (50 ppm) and with Pyricularia oryzae [2] (250 ppm) was 0 m/m throughout. Also, in the series with Pyricularia oryzae [2], the MIC is < 2 µg/mL. This compound also returned a Disease control in the series on Pyricularia oryzae [3] (setting [6]) of 100%. Further, in the series with Pyricularia oryzae [3] (setting [6]), the Disease severity came out at 0%. Moreover, the Phytotoxicity result in series [4] (100 ppm) is reported as “no”.
As to `O=C1OCCC1=Cc1ccc(Cl)cc1` [Control (vi), reference compound], the Disease control in the series on Pyricularia oryzae [1] (setting [8]) and in the series on Pyricularia oryzae [3] (setting [8]) was 0% each time. In addition, the Disease severity with Pyricularia oryzae [1] (setting [8]) and with Pyricularia oryzae [3] (setting [8]) was 100.0% throughout. For the same compound, the Diameter of mycelium in the series on Pyricularia oryzae [2] (2 ppm) came to 66.0 m/m; in the series on Pyricularia oryzae [2] (10 ppm), 51.5 m/m; in the series on Pyricularia oryzae [2] (50 ppm), 34.5 m/m; with Pyricularia oryzae [2] (250 ppm) it was 3.0 m/m. Besides, the MIC with Pyricularia oryzae [2] amounted to 250 µg/mL (≈ 1200 µM). For the same compound, the Phytotoxicity entry in series [4] (500 ppm) is listed as “no”.
As to `Cc1ccccc1C=C1CC(C)(C)OC1=O` [Compound 12, α-(o-methylbenzylidene)-γ-dimethyl-γ-butyrolactone], the Diameter of mycelium amounted to 2.0 m/m in the series on Pyricularia oryzae [2] (2 ppm), 0 m/m in the series with Pyricularia oryzae [2] (10 ppm), 0 m/m in the series with Pyricularia oryzae [2] (50 ppm) and 0 m/m in the series on Pyricularia oryzae [2] (250 ppm). The MIC in the series with Pyricularia oryzae [2] was found to be 2 µg/mL (≈ 9.25 µM). The same compound had a Disease control in the series on Pyricularia oryzae [3] (setting [6]) of 97%. Moreover, in the series on Pyricularia oryzae [3] (setting [6]), the Disease severity is on record as 2.5%. Besides, in series [4] (100 ppm), the Phytotoxicity result was “no”.
As for `O=C1OCCC1=Cc1ccc([N+](=O)[O-])cc1` [Control (v), reference compound], the Diameter of mycelium is reported as 69.5 m/m in the series with Pyricularia oryzae [2] (2 ppm), 58.5 m/m in the series on Pyricularia oryzae [2] (10 ppm), 43.0 m/m in the series on Pyricularia oryzae [2] (50 ppm) and 30.5 m/m in the series with Pyricularia oryzae [2] (250 ppm). Besides, the MIC with Pyricularia oryzae [2] was > 250 µg/mL. In the series on Pyricularia oryzae [3] (setting [8]), this compound yielded a Disease control of 0%. This compound also came in with a Disease severity in the series on Pyricularia oryzae [3] (setting [8]) of 100.0%. In series [4] (500 ppm), the Phytotoxicity entry is “no”.
On to `CC1CC(=Cc2ccccc2Br)C(=O)O1` (stereo not drawn) [Compound 7], for which the Disease control in the series on Pyricularia oryzae [1] (setting [5]) and in the series on Pyricularia oryzae [3] (setting [6]) was 100% each time. The Disease severity in the series with Pyricularia oryzae [1] (setting [5]) and with Pyricularia oryzae [3] (setting [6]) was 0% throughout. Moreover, the Diameter of mycelium in the series with Pyricularia oryzae [2] (2 ppm), in the series with Pyricularia oryzae [2] (10 ppm), in the series with Pyricularia oryzae [2] (50 ppm) and in the series with Pyricularia oryzae [2] (250 ppm) was 0 m/m throughout. Further, the MIC with Pyricularia oryzae [2] was < 2 µg/mL. Also, the Phytotoxicity entry in series [4] (100 ppm) is reported as “no”.
As for `CC1CC(=Cc2ccccc2)C(=O)O1` (stereo not drawn) [Control (ix), reference compound], in the series with Pyricularia oryzae [3] (setting [8]), the Disease control worked out at 10% and the Disease severity is recorded as 90.0%. Moreover, in series [4] (500 ppm), the Phytotoxicity entry is recorded as “no”.
In the series with Pyricularia oryzae [3] (setting [6]), `CC(C)OP(=O)(OC(C)C)SCc1ccccc1` [Commercial fungicide A, 0,0-diisopropyl-S-benzylphosphorothioate, reference compound] showed a Disease control of 92% and a Disease severity of 7.5%. In addition, in series [4] (100 ppm), the Phytotoxicity entry is “no”.
Regarding `CC1(C)CC(=Cc2ccccc2Cl)C(=O)O1` [Compound 11], in the series with Pyricularia oryzae [2] (2 ppm), the “Diameter of mycelium (symbol)” value is on record as “±”. Further, the Diameter of mycelium with Pyricularia oryzae [2] (10 ppm), with Pyricularia oryzae [2] (50 ppm) and in the series with Pyricularia oryzae [2] (250 ppm) was 0 m/m each time. Besides, in the series on Pyricularia oryzae [2], the MIC was ~2 µg/mL (≈ 8.45 µM). For the same compound, the Disease control in the series on Pyricularia oryzae [3] (setting [6]) is reported as 99%. In the series with Pyricularia oryzae [3] (setting [6]), this compound returned a Disease severity of 1.3%. Moreover, the Phytotoxicity result in series [4] (100 ppm) is given as “no”.

For the origin of these results see US3993771A (priority 1974, dated 1976).
